Test results published in BindingDB's records for PubMed 1656026 (University of Nebraska, 1991).
Several values for one entry are separate records, joined by “and”; a condition that tells them apart may be missing. Identical values can stand only once. Counter-ions that a name gives are not always drawn. Numbered stars: 1 amine (or outer) side, 2 acyl side, 3 side chain; on linkers, the order of the positions; unused ones are H or OH. Square brackets hold non-standard residues; d marks the D form. Peptide text beside a SMILES is read from it. * marks the point of attachment. Cyclohexylacetyl(1-SH) = O=C(CC1(S)CCCCC1)*; X1 = O=C(C(C=S)N[*:1])[*:2]

Experiments:
[1] = target: T1, Alpha-2B adrenergic receptor (Rattus norvegicus, UniProt P19328)
T1 sequence (P19328 whole entry): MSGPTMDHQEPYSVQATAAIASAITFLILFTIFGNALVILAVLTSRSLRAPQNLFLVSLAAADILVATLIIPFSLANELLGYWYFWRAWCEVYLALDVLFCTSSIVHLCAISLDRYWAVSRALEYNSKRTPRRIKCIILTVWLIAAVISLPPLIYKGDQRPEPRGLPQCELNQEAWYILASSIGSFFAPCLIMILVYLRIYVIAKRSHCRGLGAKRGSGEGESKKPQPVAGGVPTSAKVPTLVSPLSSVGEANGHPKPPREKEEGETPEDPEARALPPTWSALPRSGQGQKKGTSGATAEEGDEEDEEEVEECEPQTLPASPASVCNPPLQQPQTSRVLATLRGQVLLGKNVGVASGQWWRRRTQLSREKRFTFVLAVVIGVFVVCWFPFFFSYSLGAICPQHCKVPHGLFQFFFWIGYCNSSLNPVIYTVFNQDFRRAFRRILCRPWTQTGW

[2] = target: Alpha-2C adrenergic receptor
[3] = target: T2, Alpha-2A adrenergic receptor (Homo sapiens, UniProt P08913)
T2 sequence (P08913 whole entry): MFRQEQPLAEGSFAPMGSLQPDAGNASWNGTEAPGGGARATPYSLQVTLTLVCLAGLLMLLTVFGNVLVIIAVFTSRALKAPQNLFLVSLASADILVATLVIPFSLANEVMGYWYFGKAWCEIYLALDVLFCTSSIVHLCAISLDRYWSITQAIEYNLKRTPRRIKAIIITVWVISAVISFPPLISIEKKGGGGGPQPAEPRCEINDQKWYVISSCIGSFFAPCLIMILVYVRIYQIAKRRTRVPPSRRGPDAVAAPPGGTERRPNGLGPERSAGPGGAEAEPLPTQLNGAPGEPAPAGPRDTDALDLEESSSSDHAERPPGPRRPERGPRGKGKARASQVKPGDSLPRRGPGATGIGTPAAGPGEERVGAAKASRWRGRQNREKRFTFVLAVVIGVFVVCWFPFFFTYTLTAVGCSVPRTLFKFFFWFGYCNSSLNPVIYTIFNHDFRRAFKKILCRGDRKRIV

[4] = target: T3, Alpha-2C adrenergic receptor (Didelphis virginiana, UniProt P35405)
T3 sequence (P35405 whole entry): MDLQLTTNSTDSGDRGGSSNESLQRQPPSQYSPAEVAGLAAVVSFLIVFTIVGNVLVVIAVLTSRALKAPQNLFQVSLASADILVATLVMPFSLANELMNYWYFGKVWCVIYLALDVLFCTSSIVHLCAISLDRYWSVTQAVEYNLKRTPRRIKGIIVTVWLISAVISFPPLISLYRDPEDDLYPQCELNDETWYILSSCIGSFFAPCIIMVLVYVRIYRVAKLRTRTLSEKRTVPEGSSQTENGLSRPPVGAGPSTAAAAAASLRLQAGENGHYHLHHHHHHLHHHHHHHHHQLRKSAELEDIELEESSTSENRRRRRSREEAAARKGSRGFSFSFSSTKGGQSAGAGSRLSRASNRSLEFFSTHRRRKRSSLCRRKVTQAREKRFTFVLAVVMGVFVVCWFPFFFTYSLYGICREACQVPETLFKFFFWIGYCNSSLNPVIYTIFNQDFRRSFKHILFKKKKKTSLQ

SMILES: CN(C)CCCN1c2ccc(O)cc2Sc2ccc(Cl)cc21 [NSC_16414]
- Ki [1]: 59 nM
- Ki [2]: 325 nM

SMILES: CN1c2ccc(F)cc2CC1C1=NCCN1 (stereo unspecified)
- Ki [1]: 1 nM
- Ki [2]: 0.48 nM
- Ki [3]: 0.4 nM

SMILES: c1ccc2c(c1)OCC(CN1CCCCC1)O2 (stereo unspecified) [Piperoxan]
- Ki [1]: 2 nM
- Ki [2]: 1.3 nM
- Ki [3]: 5.4 nM

SMILES: OCCN1CCN(CCCN2c3ccccc3Sc3ccc(C(F)(F)F)cc32)CC1 [2-[4-[3-[2-(trifluoromethyl)phenothiazin-10-yl]propyl]piperazin-1-yl]ethanol;hydrochloride]
- Ki [1]: 320 nM
- Ki [2]: 122 nM
- Ki [3]: 304 nM

SMILES: CN1CCc2cccc(Cl)c2CC1 [MLS002172470]
- Ki [1]: 1.8 nM
- Ki [2]: 2.7 nM
- Ki [3]: 2.4 nM

SMILES: CCOC1(C2=NCCN2)COc2ccccc2O1 (stereo unspecified) [NSC_125992]
- Ki [1]: 0.58 nM
- Ki [2]: 0.24 nM
- Ki [3]: 0.2 nM

SMILES: c1ccc2c(c1)OCC(C1=NCCN1)O2 (stereo unspecified)
- Ki [2]: 0.56 nM
- Ki [4]: 2.4 nM

SMILES: CCCN(CCC)C1CCc2cccc(O)c2C1 (stereo unspecified)
- Ki [1]: 148 nM
- Ki [2]: 117 nM
- Ki [3]: 186 nM

SMILES: CC(C)(C)[C@]1(O)CCN2C[C@H]3c4ccccc4CCc4cccc(c43)[C@@H]2C1
- Ki [1]: 12 nM
- Ki [2]: 42 nM
- Ki [3]: 53 nM

SMILES: O=C1NCN(c2ccccc2)C12CCN(CC1COc3ccccc3O1)CC2 (stereo unspecified) [8-(2,3-Dihydro-benzo[1,4]dioxin-2-ylmethyl)-1-phenyl-1,3,8-triaza-spiro[4.5]decan-4-one]
- Ki [1]: 0.34 nM
- Ki [2]: 0.59 nM
- Ki [4]: 0.67 nM
- Ki [3]: 13 nM

SMILES: COC(=O)C1=COC(C)C2CN3CCc4c([nH]c5ccccc45)C3CC12 (stereo unspecified) [Ajmalicine]
- Ki [2]: 1.1 nM and 0.3 nM

SMILES: Oc1ccc(C2CNCCc3c2cc(O)c(O)c3Cl)cc1 (stereo unspecified) [MLS001401388]
- Ki [1]: 91 nM
- Ki [2]: 22 nM

SMILES: COc1cc2nc(N3CCN(C(=O)c4ccco4)CC3)nc(N)c2cc1OC [[3H]-Minipress]
- Ki [2]: 15 nM
- Ki [4]: 36 nM

SMILES: Clc1cncc(N2CCNCC2)n1 [L-630,571]
- Ki [1]: 125 nM
- Ki [2]: 126 nM
- Ki [3]: 153 nM

SMILES: O=C(c1ccc(F)cc1)C1CCN(CCn2c(=O)[nH]c3ccccc3c2=O)CC1 [3-(2-{4-[(4-fluorophenyl)carbonyl]piperidin-1-yl}ethyl)-1,2,3,4-tetrahydroquinazoline-2,4-dione]
- Ki [1]: 226 nM
- Ki [2]: 159 nM

SMILES: Cc1cc(C(C)(C)C)c(O)c(C)c1CC1=NCCN1 [SMR000059324]
- Ki [4]: 73 nM

SMILES: CCC1(c2cnc[nH]2)Cc2ccccc2C1 [NSC_71310]
- Ki [2]: 0.46 nM
- Ki [4]: 2.74 nM
- Ki [3]: 0.33 nM

SMILES: CCOc1ccc(CC(NC(=O)CC2(S)CCCCC2)C(=O)NC(Cc2ccccc2)C(=O)NC(C(=O)NC(CC(N)=O)C(=O)NC(C=S)C(=O)NC(CCCCN)C(N)=O)C(C)C)cc1 (stereo unspecified) [CAS_196343] ({Cyclohexylacetyl(1-SH)}-Y(Et)FVN[X1]K-NH2; configuration not given here)
- Ki [1]: 0.48 nM
- Ki [2]: 0.14 nM
- Ki [3]: 0.36 nM

SMILES: CSc1ccc2c(c1)N(CC[C@@H]1CCCCN1C)c1ccccc1S2 [10-[2-(1-Methyl-piperidin-2-yl)-ethyl]-2-methylsulfanyl-10H-phenothiazine (thioridazine)]
- Ki [2]: 549 nM

SMILES: O=C1c2ccccc2CCC1CNCCc1ccc(O)cc1 (stereo unspecified) [CAS_34772]
- Ki [1]: 0.68 nM
- Ki [2]: 0.5 nM
- Ki [3]: 0.93 nM

SMILES: COc1cccc(OC)c1OCCNCC1Oc2ccccc2OC1c1ccccc1 (stereo unspecified) [NSC_185453]
- Ki [1]: 8.7 nM
- Ki [2]: 0.27 nM
- Ki [4]: 1.6 nM
- Ki [3]: 1.2 nM

SMILES: Fc1cccnc1N1CCNCC1 [L-644,763]
- Ki [1]: 23 nM
- Ki [2]: 20 nM
- Ki [3]: 20 nM

SMILES: CN1CCN(C2=c3ccccc3=Nc3ccc(Cl)cc3N2)CC1 [6-chloro-10-(4-methylpiperazin-1-yl)-2,9-diazatricyclo[9.4.0.0^{3,8}]pentadeca-1,3(8),4,6,10,12,14-heptaene]
- Ki [2]: 4.2 nM

SMILES: CN(C)CCCN1c2ccccc2Sc2ccc(Cl)cc21 [[3-(2-Chloro-phenothiazin-10-yl)-propyl]-dimethyl-amine(Chlorpromazine)]
- Ki [4]: 116 nM

SMILES: CN1CCN(C2=Nc3ccccc3Sc3nccn32)CC1 [CGS-10746B]
- Ki [1]: 574 nM
- Ki [2]: 804 nM
- Ki [3]: 3600 nM

SMILES: Clc1ccc2nsnc2c1NC1=NCCN1
- Ki [1]: 76 nM
- Ki [2]: 75 nM

SMILES: CN1CCC2(CCN3CCc4c(oc5ccccc45)C3C2)N(C)C1=O (stereo unspecified) [MK-912]
- Ki [1]: 0.26 nM
- Ki [2]: 0.03 nM
- Ki [3]: 0.42 nM

SMILES: COC(=O)C1=CO[C@@H](C)[C@@H]2CN3CCc4c([nH]c5ccccc45)[C@H]3C[C@H]12 [AKUAMMIGINE]
- Ki [1]: 208 nM
- Ki [2]: 12 nM
- Ki [3]: 130 nM

SMILES: Clc1cccc2c1CN(NC1=NCCN1)C2 [CAS_76727-72-5]
- Ki [1]: 0.14 nM
- Ki [2]: 0.08 nM
- Ki [3]: 0.06 nM

SMILES: Cc1cccc(C)c1CCc1cnc[nH]1 [CAS_133305]
- Ki [1]: 18 nM
- Ki [2]: 14 nM
- Ki [3]: 8.7 nM

SMILES: C=CCN1Cc2ccccc2-c2ccccc2C1 [NSC_8966]
- Ki [1]: 5.3 nM
- Ki [2]: 14 nM
- Ki [3]: 38 nM

SMILES: CS(=O)(=O)NCCN(C1CCN2CCc3ccccc3C2C1)S(C)(=O)=O (stereo unspecified) [CAS_125697]
- Ki [1]: 5.2 nM
- Ki [2]: 0.56 nM
- Ki [3]: 11 nM

SMILES: CC(C)=CCOc1ccc(Cl)c2c1CCN(C)CC2 [SK&F-104078]
- Ki [1]: 49 nM
- Ki [2]: 43 nM
- Ki [3]: 32 nM

SMILES: COc1ccccc1N1CCN(CCC2C(=O)c3ccccc3C(C)(C)C2=O)CC1 (stereo unspecified) [NSC_122211]
- Ki [1]: 1.6 nM
- Ki [2]: 13 nM
- Ki [4]: 48 nM
- Ki [3]: 171 nM

SMILES: CCCS(=O)(=O)N(C)C1CCN2CCc3ccccc3C2C1 (stereo unspecified) [CAS_133816]
- Ki [1]: 1.9 nM
- Ki [2]: 0.86 nM
- Ki [3]: 2.2 nM

SMILES: CN1C[C@H](Cn2ccnc2-c2ccccc2)C[C@@H]2c3cccc4[nH]c(Br)c(c34)C[C@H]21 [BAM-1303]
- Ki [1]: 26 nM
- Ki [2]: 0.38 nM
- Ki [3]: 2.5 nM

SMILES: c1cn2ccnc2c(N2CCNCC2)n1 [L-639,019]
- Ki [1]: 34 nM
- Ki [2]: 88 nM
- Ki [3]: 35 nM

SMILES: CCCCS(=O)(=O)N(C)[C@H]1CCN2CCc3ccccc3[C@H]2C1 [N-[(2S,11bR)-2,3,4,6,7,11b-hexahydro-1H-benzo[a]quinolizin-2-yl]-N-methylbutane-1-sulfonamide hydrochloride]
- Ki [1]: 1.7 nM
- Ki [2]: 0.46 nM
- Ki [3]: 1.4 nM

SMILES: c1ccc(CC2=NCCN2)cc1 [Tolazoline]
- Ki [1]: 113 nM
- Ki [2]: 222 nM

SMILES: Cc1nc2n(c(=O)c1CCN1CCC(C(=O)c3ccc(F)cc3)CC1)CCS2 [CAS_86487-64-1]
- Ki [1]: 25 nM
- Ki [2]: 51 nM
- Ki [3]: 90 nM
